Structures can show the parent of a compound that is named as a salt.

One series relates to guinea pig basophils. As to the kind of experiment: Inhibition of histamine release from guinea pig basophils, Procedure C. Particulars: Cavia porcellus, 1 h, ovalbumin-sensitized, 37° C., 60 minutes, read-out: In Vitro Inhibition of Histamine Release IC50, Procedure C. The class given is cell-based. The protocol: C. Procedure for Determining Inhibition of Histamine Release from Guinea Pig Basophils 1. In Vivo Sensitization: Male Hartley guinea pigs (200-300 gms) are immunized on day 0 with two 0.05 ml intradermal injections of 200 μg ovalbumin. Sensitized basophils are available between days 13-25 post-sensitization. This mode of sensitization favors IgE response. 2. Separation of Leukocytes: The method of Lett-Brown et al., Int. Arch. Allergy, Appl. Immun. 64, 241 (1981) is used. Animals are anesthetized with ether and are bled via cardiac puncture with plastic syringes containing sufficient EDTA to provide a final concentration of 10 mM. One part of 3% gelatin in saline at 37° C. is mixed with two parts of blood in a 16×150 mm tube. The cells are allowed to sediment at a 30° angle for 45 minutes in a 37° C. water bath. The leukocyte-rich plasma is collected and centrifuged at 150×g for 30 minutes at room temperature. The pelleted cells are washed in Hepes-buffered saline (HG) containing 4 mM EDTA and resuspended in Hepes-buffered saline containing Mg^++ and Ca^++ (HGCM) at 4-5×10^6 cells/ml. 3. Reaction Mixture: The reaction is carried out in 12×75 mm plastic tubes and a total volume of 1.2 ml which includes 0.5 ml of antigen, 0.2 ml of drug solution at concentrations ranging from 10-1000 μM and 0.5 ml of prewashed cell suspension. The reaction mixture is incubated in a 37° C. shaking water bath for 60 minutes. Upon completion of the reaction, the tubes are centrifuged and the supernatants collected. The protein is removed from the supernatants by precipitation with 0.2 ml of 8% perchloric acid. 4. Histamine Assay: Histamine release is measured by the automated fluorometric method of Siraganian, supra. The concentration which causes a 50 percent inhibition of Histamine release is computed as in Part A.

Series [1] relates to human leukocytes (basophils). As to the kind of experiment: Inhibition of histamine release from human leukocytes (basophils), Procedure A. Type of series: cell-based. The following applies: Leukocyte, 1 h, rabbit anti-human IgE, 37° C., 60 minutes, (d) No response detected at highest dose indicated, read-out: In Vitro Inhibition of Histamine Release IC50, Procedure A. The protocol:
A. Procedure for Determining Inhibition of Histamine Release from Human Leukocytes (Basophils) 1. Separation of Leukocytes: A modification of the method of L. Lichtenstein and A. Osler, J. Exp. Med. 120, 507 (1964) is used. Heparinized human blood (80-100 ml) is mixed with 20 ml of saline (0.2%) containing 0.6 gm of dextrose and 1.2 gm dextran in propylene centrifuge tubes. The mixture is kept at ambient temperature for 60-90 minutes to allow the separation of erythrocytes from the platelet-leukocyte-rich supernate. The supernate is removed and centrifuged for 8 minutes at 110×g in cold. The leukocyte pellet is washed twice with Tris buffer and finally suspended in 150-180 ml Tris-ACM buffer at 1-2×10^6 cells/ml. 2. Reaction Mixture: The reaction is carried out in 12×75 mm plastic tubes at a total volume of […]. The reaction medium includes 0.05 ml rabbit anti-human IgE (the antigen), 0.2 ml of the test compound in water at concentrations ranging from 10-100 μM, and 0.1 ml of the leukocyte suspension. The reaction mixture is incubated in a 37° C. shaking water bath for 60 minutes. Upon completion of the reaction, the tubes are centrifuged and the supernatants collected. The protein is removed from the supernatants by precipitation with 0.2 ml of 8% perchloric acid. 3. Histamine Assay: Histamine release is measured by the automated fluorometric method of W. Siraganian and W. Hook in Chapter 102 of the Manual of Clinical Immunology, 2nd Edition, edited by R. Rose and H. Friedman, published by the American Society for Microbiology, Washington, D.C. 1980. Percent inhibition is calculated as follows: [formula] The concentration which causes a 50 percent inhibition (IC50) of histamine release is interpolated from a plot of percent inhibition versus logarithm of drug concentration.

Series [2] concerns rat peritoneal mast cells. As to the kind of experiment: Inhibition of histamine release from rat peritoneal mast cells, Procedure B. The class given is cell-based. Particulars: Mast cell, 1 h, sheep anti-rat IgE or ovalbumin, 37° C., 60 minutes, (d) No response detected at highest dose indicated, read-out: In Vitro Inhibition of Histamine Release IC50, Procedure B. The protocol:
B. Procedure for Determining Inhibition of Histamine Release from Rat Peritoneal Mast Cells 1. Harvest of Peritoneal Mast Cells: After the rats are sacrificed with ether, 20 ml of Minimum Essential Medium (MEM) containing 20 units/ml heparin is injected into the peritoneum. The abdomen is massaged for one minute and the lavage fluid collected. The peritoneal cells are centrifuged at 1800 rpm for 8 minutes in cold. After two washes with Tris A buffer, the cells are resuspended in Tris ACM buffer at 2-4×10^6 cells/ml. 2. Reaction Mixture: The reaction is carried out in 12×75 mm plastic tubes at a total volume of 1.25 ml. The reaction mixture includes 0.5 ml (10-1000 μg) sheep anti-rat IgE or ovalbumin, 0.2 ml of the test compound in water at concentrations ranging from 10-1000 μM, […] phosphatidylserine solution (20-60 μg to each tube), and 0.5 ml of cell suspension. The reaction mixture is incubated in a 37° C. shaking water bath for 60 minutes. Upon completion of the reaction, the tubes are centrifuged and the supernatants collected. The protein is removed from the supernatants by precipitation with 0.2 ml of 8% perchloric acid. 3. Histamine Assay: Histamine release is measured by the automated fluorometric method of Siraganian, supra. The concentration which causes a 50% inhibition (IC50) of histamine release is computed as in Part A.

A further series can be described thus: Solubility limit. Particulars: pH 7.

What is called IC50 is the concentration at which inhibition is half-maximal. As for `O=C(CC(=O)N1CCN(Cc2ccc(Cl)cc2)CC1)N1CCN(Cc2ccc(Cl)cc2)CC1` [Example 15, 1,3-Bis[4-(4-chlorobenzyl)-1-piperazinyl]-1,3-dioxopropane dihydrochloride monohydrate], the concentration for half-maximal inhibition (IC50) in the series with guinea pig basophils was 49 µM; in series [1], 17 µM; in series [2], 10 µM.
Take `Clc1ccc(CCN2CCN(CCCN3CCN(CCc4ccc(Cl)cc4)CC3)CC2)cc1` [Example 16, 1,3-Bis[4-(4-chlorophenethyl)-1-piperazinyl]propane]: the values for the IC50 (in the series on guinea pig basophils; in series [1]; in series [2]) were 12 µM, 3 µM and over 100 µM, respectively.
As a reminder, the solubility is how much of the substance goes into solution per volume. With `Cl.Cl.Cl.Cl.Clc1ccc(CCCN2CCN(CCCN3CCN(CCCc4ccc(Cl)cc4)CC3)CC2)cc1.O` [Example 24, 1,3 -Bis[4-(3-{4-chlorophenyl}propyl)-1-piperazinyl]propane tetrahydrochloride monohydrate], the IC50 in the series on guinea pig basophils was 8.9 µM; in series [1], 2 µM; in series [2], 2 µM. The solubility in “Solubility limit” turned out to be 1000 µg/mL.
With `Clc1ccc(CN2CCCN(CCCN3CCCN(Cc4ccc(Cl)cc4)CC3)CC2)cc1` [Example 28, 1,3-Bis[4-(4-chlorobenzyl)-1-homopiperazinyl]propane tetrahydrochloride], the IC50 in the series on guinea pig basophils was 2.3 µM; in series [1], 6 µM; in series [2], 9 µM.

Source of the values: US4725597A, “Bis(piperazinyl or homopiperazinyl)alkanes” (Boehringer Ingelheim Ltd., priority 1984, dated 1988).
